The results in this text go back to article PMC5667506, “Potent and selective inhibition of SH3 domains with dirhodium metalloinhibitors” (Chemical Science, 2015).

pKd: −log10 of the molar value. Rh2(OAc)3 = dirhodium(II) triacetate, bound to the side-chain carboxylate Where only a bound is given, the exact number is not on record here.

For one assay, the target named is T1, Lck SH3 domain (Homo sapiens, UniProt P06239).
T1 construct: fyn, yes, lck, and src SH3 protein domains were prepared following published procedures; made in house
T1 sequence (P06239 61-121 limits assumed): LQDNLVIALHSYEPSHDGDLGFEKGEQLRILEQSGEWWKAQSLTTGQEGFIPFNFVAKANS
Briefly: ITC binding to Lck SH3 domain. The method, then: All chemical reagents were purchased from Sigma-Aldrich and were used without further purification. […]
ITC analysis. ITC experiments were carried out on a VP-ITC instrument (MicroCal) at 25 °C. Titrations of 275 μM peptide into 18 μM SH3 domain proteins were used for all titrations, except for the titration of S2ERh into Lyn SH3 domain, where the lower concentrations of 69 µM S2ERh peptide and 4 µM Lyn SH3 were used to attain a c-value for the titration within the accepted limts for ITC experiments ([…]).3
Heats of dilutions were measured independently for each experiment by titrating 275 μM peptide into buffer (20 mM phosphate buffer, pH 7, 150 mM NaCl, 1 mM EDTA). All experimental data were fitted using a one set of sites binding model in Origin software (MicroCal) except for the data with Hck SH3 domain. With Hck only, the non-peptide specific binding of dirhodium tetraacetate to Hck SH3 domain could not be treated as negligible, despite the very weak interaction (88 µM), due to the larger enthalpy contribution observed for non-specific binding to this SH3 domain, so the titrations of peptide into Hck were fitted using a 2 set of sites binding model where the stoichiometry for the second set of sites was fixed at 2.0. […]
Known compounds and proteins. […]

In assay [1] the target is T2, Lyn SH3 H78A and H96A double mutant (Homo sapiens, UniProt P07948, H78A/H96A).
T2 construct: The lyn SH3 domain was amplified by PCR using Phusion DNA polymerase; GST (N, cleaved yes); made in house; host or cells: E. coli BL21 (DE3)
T2 sequence (P07948 63-123 H78A/H96A limits assumed): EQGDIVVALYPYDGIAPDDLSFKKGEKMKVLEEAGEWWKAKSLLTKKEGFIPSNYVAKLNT
The assay can be described thus: Binding to Lyn SH3 H78A and H96A double mutant. To be noted: read-out: affinity. As for the experimental part:
The remarkable 6 nM affinity, far stronger than that of any reported non-protein ligand for SH3 domains, led us to study the structural basis of the observed affinity. […] The H78A and H96A double mutant binds much more weakly (>5 μM). […] That the majority of the stabilization energy comes from the first histidine coordination is consistent with the negative cooperativity generally seen for axial coordination to rhodium(II): a second coordination in solution is roughly two orders of magnitude less favorable.[40]–[43]
Abl SH3 domain preparation. The abl SH3 domain was amplified by PCR using Phusion DNA polymerase (Finnzymes). The
reactions were performed following manufacture's protocol with Phusion HF buffer and 5% DMSO. Primers were designed as
follows: 5'-[…]-3' (BamHI site underlined) and a reverse primer, 5'-
-3' (EcoRI site underlined). The resultant product was digested with
BamHI and EcoRI and subcloned into BamHI-EcoRI sites of pGex-KTO. Confirmed PCR fidelity by sequencing.
Hck SH3 domain preparation. The hck SH3 domain was amplified by PCR using Phusion DNA polymerase (Finnzymes). The
Lyn SH3 domain preparation. The lyn SH3 domain was amplified by PCR using Phusion DNA polymerase (Finnzymes). The […]
assessed by SDS-PAGE using 12% Bis-Tris gels (Invitrogen). […]
concentrated, and aliquoted for storage at –80 °C. Concentration was determined using the absorbance at 280 nm (NanoDrop, […]

As for “AcVELARRPLPPLPN-NH2 (Ac-VE(Rh2(OAc)3)LARRPLPPLPN-NH2; also: metal complex: Glu2 carboxylate bound to dirhodium(II) triacetate) [S2E^Rh, rhodium(II) metallopeptide made from S2E peptide (Ac…-NH2) and Rh2(tfa)(OAc)3]”, the pKd with Lck SH3 domain (25 °C) was 6.32.
On to “AcVELARRPLPPLPN-NH2 (Ac-VELARRPLPPLPN-NH2; also: Glu2 side-chain carboxylate bound to Rh2(OAc)3) [S2E^Rh, rhodium(II) metallopeptide made from S2E peptide (Ac…-NH2) and Rh2(tfa)(OAc)3]”, for which, in assay [1], the pKd is under 5.30.
Regarding AcVELARRPLPPLPN-NH2 [S2E^Rh], the Stoichiometry at Lck SH3 domain was 1.1. Further, at Lck SH3 domain (25 °C), the “-TΔS” value is 2.6 kcal/mol, the ΔG is -8.6 kcal/mol and the ΔH is -11.2 kcal/mol.
